One experiment concerns PKC and ERK activity. Briefly: FRET assays of compartmentalized PKC and ERK in DRG neurons. In kind it is cell-based, rat. As to the method:
To determine whether trypsin causes PAR2-dependent activation of PKC and ERK, which respectively mediate initial and persistent trypsin-induced hyperexcitability of nociceptors, genetically-encoded Förster Resonance Energy Transfer (FRET) biosensors were expressed in neurons. […] Trypsin (10 or 100 nM) activated PKC at the plasma membrane but not in the cytosol (FIG. 4E-G), and activated ERK in the cytosol and nucleus (FIG. 4H-J). The PAR2 antagonist I-343 (10 μM) inhibited trypsin-induced activation of PKC and ERK, whereas the PAR1 antagonist SCH530348 (100 nM) had no effect (FIG. 4F, I). At the end of experiments, neurons were challenged with the positive controls phorbol 12,13-dibutyrate (PDBu) for EKAR biosensors or PDBu plus phosphatase inhibitor mixture-2 for CKAR biosensors, to ensure that the response of the biosensor was not saturated.
DRG were collected from C57BL/6 mice and Sprague-Dawley rats (all levels). DRG were incubated with collagenase IV (2 mg/ml) and dispase II (1 mg/ml) for 30 min (mice) and 45 min (rats) at 37° C. DRG were dispersed by trituration with a fire-polished Pasteur pipette. Dissociated neurons were transfected with mPAR2-GFP (1 μg), the FRET biosensors CytoEKAR, NucEKAR, pmCKAR or CytoCKAR (all […]), or with the BRET biosensors PAR2-RLuc8 (125 ng) and βARR2-FYP (475 ng) using the Lonza 4D-Nucleofector X unit according to the manufacturer's instructions. Neurons were plated on laminin- (0.004 mg/ml) and poly-L-Lysine- (0.1 mg/ml) coated glass coverslips for confocal microscopy, on ViewPlate-96 plates (PerkinElmer) for FRET assays, or on CulturPlates (PerkinElmer) for BRET assays. Neurons were maintained in Dulbecco's modified Eagle medium (DMEM) containing 10% fetal bovine serum (FBS), antibiotic-antimitotic, and N1 supplement for 48 h before study.
Rat DRG neurons expressing FRET biosensors were serum-restricted (0.5% FBS overnight), and equilibrated in HBSS-HEPES (10 mM HEPES, pH 7.4, 30 min, 37° C.). FRET was analyzed using an Operetta CLS High-Content Imaging System (PerkinElmer) or an INCell Analyzer 2000 G E Healthcare Life Sciences). For CFP/YFP emission ratio analysis, cells were sequentially excited using a CFP filter (410-430 nm) with emission measured using YFP (520-560 nm) and CFP (460-500 nm) filters. Cells were imaged at 1 or 2 min intervals. Baseline was measured, neurons were challenged with trypsin (10 or 100 nM) or vehicle, and responses recorded for a further 30 min. Neurons were then challenged with phorbol 12,13-dibutyrate (PDBu, 200 nM, 10 min) for EKAR biosensors or PDBu (200 nM) and phosphatase inhibitor cocktail-2 (SigmaAldrich, 10 min) for CKAR biosensors. Data were analyzed using Harmony 4.1 or Image J 1.51 software. Images taken were aligned, cells were selected based on diameter, and fluorescence intensity was calculated for both FRET and CFP channels. Background intensity was subtracted and the FRET ratio was determined as the change in the FRET/donor (EKAR) or donor/FRET (CKAR) emission ratio relative to the baseline for each cell (F/Fo). Cells with >5% changes in F/F0 after PDBu stimulation were selected for analysis. Neurons were incubated with I-343 (10 μM), SCH530348 (100 nM) or vehicle (30 min, 37° C. preincubation and inclusion throughout).

In a further experiment the test system is colonic afferent neurons. The experiment in a line: Colonic afferent recordings, CVH mice (28 d post-TNBS). Also noted: species or system mouse. As to the method:
Transient colitis in mice induces hypersensitivity of colonic afferent neurons that persists after inflammation is resolved (Azpiroz F., et al., Neurogastroenterol Motil. 2007, 19(1 Suppl): 62-88). This chronic visceral hypersensitivity (CVH) may mimic post-infectious/inflammatory IBS. To determine whether proteases can further amplify CVH, mice were treated with trinitrobenzene sulphonic acid (TNBS, enema) to induce colitis. At 28 d post-TNBS, when inflammation is undetectable, mechanical stimulation of the colon induced a larger firing rate in CVH mice than in HC mice, consistent with chronic hyperexcitability (FIG. 21A-D). […] Thus, proteases can still amplify the excitability of colonic nociceptors even when they are already sensitized as a result of prior inflammation. The colon and rectum (5-6 cm) was removed from C57BL/6 mice. Afferent recordings were made from splanchnic nerves as described (Hughes, P. A. et al., Gut 2009, 58(10): 1333-134; Brierley, S. M. et al., Gastroenterology 2004, 127(1): 166-178). Briefly, the intestine was opened and pinned flat, mucosal side up, in an organ bath. […] Action potentials were analyzed using the Spike 2 […] function and discriminated as single units on the basis of distinguishable waveform, amplitude and duration. […]

Setting [1] is: trypsin 10 or 100 nM, rat DRG neurons.

As for `Cc1nc(C(=O)N2CCN(C(=O)c3cn4nc(-c5ccc(F)cc5)cc(C(C)(C)C)c4n3)C(C)(C)C2)n[nH]1` [Compound I-343, (8-(tert-butyl)-6-(4-fluorophenyl)imidazo[1,2-b]pyridazin-2-yl)(2,2-dimethyl-4-(5-methyl-1H-1,2,4-triazole-3-carbonyl)piperazin-1-yl)methanone], the “trypsin-induced activation of PKC and ERK” value in the experiment with PKC and ERK activity (I-343 10 μM, SCH530348 100 nM) is “inhibited”.

As to “NE: protease (elastase) activating PAR2 by biased mechanisms”, the “further amplification of responses compared to basal, CVH mice” value with colonic afferent neurons was found to be 30.6±9.0%.

For the molecule trypsin, in the experiment on colonic afferent neurons, the “further amplification of responses compared to basal, CVH mice” value came out at 16.4±7.9%. For the same molecule, in the experiment on PKC and ERK activity (setting [1]), the “ERK activity in the cytosol and nucleus” value was “activated”; the “PKC activity at the plasma membrane” value is reported as “activated”; the “PKC activity in the cytosol” value is given as “not”.
